Assay results published in PMC10653547, “Synergistic effect of two antimicrobial peptides, BP203 and MAP-0403 J-2 with conventional antibiotics against colistin-resistant Escherichia coli and Klebsiella pneumoniae clinical isolates” (PLOS ONE, 2023).

Columns and labels:
[1] = test system: colistin-resistant K. pneumoniae clinical isolates; experiment: Disk diffusion antimicrobial susceptibility testing (CLSI); assay type: cell-based, Klebsiella pneumoniae; as to Interpreted results of disk diffusion: key: R: resistant; I: intermediate; SDD: susceptible-dose dependent; S: sensitive
[2] = test system: colistin-resistant E. coli clinical isolates; experiment: as above; assay type: cell-based, Escherichia coli
[3] = test system: colistin-resistant E. coli clinical isolates; experiment: Checkerboard assay for synergy testing; assay type: cell-based, Escherichia coli
Description: (§1) The synergistic activities of various two-antimicrobial combinations against colistin-resistant E. coli and K. pneumoniae isolates were evaluated using the checkerboard assay, which was performed in 96-well plates. […] Two-fold serial dilutions of peptides and antibiotics were independently prepared in CAMHB. Afterward, a mixture of different concentrations of the antibiotics and peptides was added to the wells of the microplates. Antibiotics and peptides were also dispended alone in the first row and the first column, respectively. Bacterial inoculum was added to the 96-well plate to achieve a final concentration of 5 × 10^5 CFU/mL. Then, plates were incubated at 37 °C for 20–24 h. MICs were recorded as the minimum concentration of antimicrobial agents without bacterial growth. The interaction between the antimicrobials was determined by calculating the fractional inhibitory concentration index (FICI) according to the formula: FICI = FIC(drug A) + FIC(drug B), where FIC = the MIC of the drug when in the combination/MIC of drug tested individually.

[4] = test system: colistin-resistant K. pneumoniae clinical isolates; experiment: Checkerboard assay for synergy testing; assay type: cell-based, Klebsiella pneumoniae
Description: as §1

[5] = isolate EC-01, checkerboard Chloramphenicol+BP203
[6] = isolate EC-01, checkerboard Chloramphenicol+MAP-0403 J-2
[7] = isolate EC-02, checkerboard Chloramphenicol+BP203
[8] = isolate EC-02, checkerboard Chloramphenicol+MAP-0403 J-2
[9] = isolate EC-03, checkerboard Chloramphenicol+BP203
[10] = isolate EC-03, checkerboard Chloramphenicol+MAP-0403 J-2
[11] = isolate EC-04, checkerboard Chloramphenicol+BP203
[12] = isolate EC-05, checkerboard Chloramphenicol+BP203
[13] = isolate EC-05, checkerboard Chloramphenicol+MAP-0403 J-2
[14] = isolate EC-06, checkerboard Chloramphenicol+BP203
[15] = isolate EC-06, checkerboard Chloramphenicol+MAP-0403 J-2
[16] = isolate EC-07, checkerboard Chloramphenicol+BP203
[17] = isolate EC-07, checkerboard Chloramphenicol+MAP-0403 J-2
[18] = isolate EC-08, checkerboard Chloramphenicol+BP203
[19] = isolate EC-08, checkerboard Chloramphenicol+MAP-0403 J-2
[20] = isolate EC-09, checkerboard Chloramphenicol+BP203
[21] = isolate EC-09, checkerboard Chloramphenicol+MAP-0403 J-2
[22] = isolate EC-10, checkerboard Chloramphenicol+BP203
[23] = isolate EC-10, checkerboard Chloramphenicol+MAP-0403 J-2
[24] = isolate KP-01, checkerboard Chloramphenicol+BP203
[25] = isolate KP-01, checkerboard Chloramphenicol+MAP-0403 J-2
[26] = isolate KP-02, checkerboard Chloramphenicol+BP203
[27] = isolate KP-02, checkerboard Chloramphenicol+MAP-0403 J-2
[28] = isolate KP-03, checkerboard Chloramphenicol+BP203
[29] = isolate KP-03, checkerboard Chloramphenicol+MAP-0403 J-2
[30] = isolate KP-04, checkerboard Chloramphenicol+BP203
[31] = isolate KP-04, checkerboard Chloramphenicol+MAP-0403 J-2
[32] = isolate KP-05, checkerboard Chloramphenicol+BP203
[33] = isolate KP-05, checkerboard Chloramphenicol+MAP-0403 J-2
[34] = isolate KP-06, checkerboard Chloramphenicol+BP203
[35] = isolate KP-06, checkerboard Chloramphenicol+MAP-0403 J-2
[36] = isolate KP-07, checkerboard Chloramphenicol+BP203
[37] = isolate KP-07, checkerboard Chloramphenicol+MAP-0403 J-2
[38] = isolate KP-08, checkerboard Chloramphenicol+BP203
[39] = isolate KP-08, checkerboard Chloramphenicol+MAP-0403 J-2
[40] = isolate KP-09, checkerboard Chloramphenicol+BP203
[41] = isolate KP-09, checkerboard Chloramphenicol+MAP-0403 J-2
[42] = isolate KP-10, checkerboard Chloramphenicol+BP203
[43] = isolate KP-10, checkerboard Chloramphenicol+MAP-0403 J-2

O=C(N[C@H](CO)[C@H](O)c1ccc([N+](=O)[O-])cc1)C(Cl)Cl [C, chloramphenicol]
Interpreted results of disk diffusion ([1]; KP-01): R
Interpreted results of disk diffusion ([1]; KP-02): R
Interpreted results of disk diffusion ([1]; KP-03): S
Interpreted results of disk diffusion ([1]; KP-04): S
Interpreted results of disk diffusion ([1]; KP-05): S
Interpreted results of disk diffusion ([1]; KP-06): R
Interpreted results of disk diffusion ([1]; KP-07): I
Interpreted results of disk diffusion ([1]; KP-08): S
Interpreted results of disk diffusion ([1]; KP-09): I
Interpreted results of disk diffusion ([1]; KP-10): R
%Resistance ([1]; ten K. pneumoniae isolates, disk diffusion): 40%
Interpreted results of disk diffusion ([2]; EC-01): R
Interpreted results of disk diffusion ([2]; EC-02): R
Interpreted results of disk diffusion ([2]; EC-03): R
Interpreted results of disk diffusion ([2]; EC-04): R
Interpreted results of disk diffusion ([2]; EC-05): R
Interpreted results of disk diffusion ([2]; EC-06): S
Interpreted results of disk diffusion ([2]; EC-07): R
Interpreted results of disk diffusion ([2]; EC-08): R
Interpreted results of disk diffusion ([2]; EC-09): R
Interpreted results of disk diffusion ([2]; EC-10): R
%Resistance ([2]; ten E. coli isolates, disk diffusion): 90%
MIC alone [3, 5]: 128 µg/mL
MIC combination [3, 5]: 1 µg/mL
MIC alone [3, 6]: 128 µg/mL
MIC combination [3, 6]: 64 µg/mL
MIC alone [3, 7]: 64 µg/mL
MIC combination [3, 7]: 32 µg/mL
MIC alone [3, 8]: 64 µg/mL
MIC combination [3, 8]: 32 µg/mL
MIC alone [3, 9]: 64 µg/mL
MIC combination [3, 9]: 32 µg/mL
MIC alone [3, 10]: 64 µg/mL
MIC combination [3, 10]: 16 µg/mL
MIC alone [3, 11]: 32 µg/mL
MIC combination [3, 11]: 1 µg/mL
MIC combination ([3]; isolate EC-04, checkerboard Chloramphenicol+MAP-0403 J-2): 128 µg/mL
MIC alone [3, 12]: 64 µg/mL
MIC combination [3, 12]: 32 µg/mL
MIC alone [3, 13]: 64 µg/mL
MIC combination [3, 13]: 32 µg/mL
MIC alone [3, 14]: 16 µg/mL
MIC combination [3, 14]: 4 µg/mL
MIC alone [3, 15]: 8 µg/mL
MIC combination [3, 15]: 4 µg/mL
MIC alone [3, 16]: 256 µg/mL
MIC combination [3, 16]: 64 µg/mL
MIC alone [3, 17]: 64 µg/mL
MIC combination [3, 17]: 32 µg/mL
MIC alone [3, 18]: 64 µg/mL
MIC combination [3, 18]: 32 µg/mL
MIC alone [3, 19]: 64 µg/mL
MIC combination [3, 19]: 16 µg/mL
MIC alone [3, 20]: 256 µg/mL
MIC combination [3, 20]: 64 µg/mL
MIC alone [3, 21]: 256 µg/mL
MIC combination [3, 21]: 64 µg/mL
MIC alone [3, 22]: 256 µg/mL
MIC combination [3, 22]: 32 µg/mL
MIC alone [3, 23]: 256 µg/mL
MIC combination [3, 23]: 64 µg/mL
MIC alone [4, 24]: 512 µg/mL
MIC combination [4, 24]: 128 µg/mL
MIC alone [4, 25]: 1020 µg/mL
MIC combination [4, 25]: 256 µg/mL
MIC alone [4, 26]: 512 µg/mL
MIC combination [4, 26]: 128 µg/mL
MIC alone [4, 27]: 512 µg/mL
MIC combination [4, 27]: 128 µg/mL
MIC alone [4, 28]: 8 µg/mL
MIC combination [4, 28]: 2 µg/mL
MIC alone [4, 29]: 8 µg/mL
MIC combination [4, 29]: 2 µg/mL
MIC alone [4, 30]: 8 µg/mL
MIC combination [4, 30]: 4 µg/mL
MIC alone [4, 31]: 8 µg/mL
MIC combination [4, 31]: 2 µg/mL
MIC alone [4, 32]: 4 µg/mL
MIC combination [4, 32]: 2 µg/mL
MIC alone [4, 33]: 1020 µg/mL
MIC combination [4, 33]: 256 µg/mL
MIC alone [4, 34]: 512 µg/mL
MIC combination [4, 34]: 128 µg/mL
MIC alone [4, 35]: 32 µg/mL
MIC combination [4, 35]: 8 µg/mL
MIC alone [4, 36]: 512 µg/mL
MIC combination [4, 36]: 128 µg/mL
MIC alone [4, 37]: 8 µg/mL
MIC combination [4, 37]: 4 µg/mL
MIC alone [4, 38]: 4 µg/mL
MIC combination [4, 38]: 1 µg/mL
MIC alone [4, 39]: 8 µg/mL
MIC combination [4, 39]: 4 µg/mL
MIC alone [4, 40]: 32 µg/mL
MIC combination [4, 40]: 4 µg/mL
MIC alone [4, 41]: 32 µg/mL
MIC combination [4, 41]: 16 µg/mL
MIC alone [4, 42]: 64 µg/mL
MIC combination [4, 42]: 8 µg/mL
MIC alone [4, 43]: 64 µg/mL
MIC combination [4, 43]: 4 µg/mL
